The values that follow come from US11311520B2, “Substituted dihydroimidazopyridinediones as MKNK1 and MKNK2 inhibitors” (Bayer Pharma Aktiengesellschaft, priority 2017, dated 2022).

This experiment addresses human full-length MKNK1 (Homo sapiens (Human), UniProt Q9BUB5, T344D). Put plainly: MKNK1 kinase high ATP assay (TR-FRET). In kind it is biochemical. The settings on record: 2 mM ATP, 15 min preincubation with enzyme, GST-MKNK1 (T344D). As to the method: MKNK1 Kinase High ATP Assay
MKNK1-inhibitory activity at high ATP of compounds of the present invention after their preincubation with MKNK1 was quantified employing the TR-FRET-based MKNK1 high ATP assay as described in the following paragraphs.
A recombinant fusion protein of Glutathione-S-Transferase (GST, N-terminally) and human full-length MKNK1 (amino acids 1-424 and T344D of accession number BAA 19885.1), expressed in insect cells using baculovirus expression system and purified via glutathione sepharose affinity chromatography, was purchased from Carna Biosciences (product no 02-145) and used as enzyme. As substrate for the kinase reaction the biotinylated peptide biotin-Ahx-IKKRKLTRRKSLKG (SEQ ID NO: 1) (C-terminus in amide form) was used, which can be purchased e.g. from the company Biosyntan (Berlin-Buch, Germany)
For the assay 50 nL of a 100 fold concentrated solution of the test compound in DMSO was pipetted into a black low volume 384 well microtiter plate (Greiner Bio-One, Frickenhausen, Germany), 2 μL of a solution of MKNK1 in aqueous assay buffer [50 mM HEPES pH 7.5, 5 mM MgCl2, 1.0 mM dithiothreitol, 0.005% (v/v) Nonidet-P40 (Sigma)] was added and the mixture was incubated for […] at 22° C. to allow pre-binding of the test compounds to the enzyme before the start of the kinase reaction. Then the kinase reaction was started by the addition of 3 μL of a solution of adenosine-tri-phosphate (ATP, 3.3 mM=>final conc. in the 5 μL assay volume is 2 mM) and substrate (0.1 μM=>final conc. in the 5 μL assay volume is 0.06 μM) in assay buffer and the resulting mixture was incubated for a reaction time of 30 min at 22° C. The concentration of MKNK1 was adjusted depending of the activity of the enzyme lot and was chosen appropriate to have the assay in the linear range, typical concentrations were in the range of 0.003 μg/mL. The reaction was stopped by the addition of 5 μL of a solution of TR-FRET detection reagents (5 nM streptavidine-XL665 [Cisbio Bioassays, Codolet, France] and 1 nM anti-ribosomal protein S6 (pSer236)-antibody from Invitrogen [#44921G] and 1 nM LANCE EU-W1024 labeled ProteinG [Perkin-Elmer, product no. AD0071]) in an aqueous EDTA-solution (100 mM EDTA, 0.1% (w/v) bovine serum albumin in 50 mM HEPES pH 7.5).
The resulting mixture was incubated for 1 h at 22° C. to allow the formation of complex between the phosphorylated biotinylated peptide and the detection reagents. Subsequently the amount of phosphorylated substrate was evaluated by measurement of the resonance energy transfer from the Eu-chelate to the streptavidine-XL. Therefore, the fluorescence emissions at 620 nm and 665 nm after excitation at 350 nm were measured in a TR-FRET reader, e.g. a Rubystar (BMG Labtechnologies, Offenburg, Germany) or a Viewlux (Perkin-Elmer). The ratio of the emissions at 665 nm and at […] was taken as the measure for the amount of phosphorylated substrate. The data were normalised (enzyme reaction without inhibitor=0% inhibition, all other assay components but no enzyme=100% inhibition).
(In general: In TR-FRET formats the signal depends on donor and acceptor labels being close together.)

Sequence of human full-length MKNK1 (Q9BUB5 other isoform, or with tags, fused parts or gaps T344D): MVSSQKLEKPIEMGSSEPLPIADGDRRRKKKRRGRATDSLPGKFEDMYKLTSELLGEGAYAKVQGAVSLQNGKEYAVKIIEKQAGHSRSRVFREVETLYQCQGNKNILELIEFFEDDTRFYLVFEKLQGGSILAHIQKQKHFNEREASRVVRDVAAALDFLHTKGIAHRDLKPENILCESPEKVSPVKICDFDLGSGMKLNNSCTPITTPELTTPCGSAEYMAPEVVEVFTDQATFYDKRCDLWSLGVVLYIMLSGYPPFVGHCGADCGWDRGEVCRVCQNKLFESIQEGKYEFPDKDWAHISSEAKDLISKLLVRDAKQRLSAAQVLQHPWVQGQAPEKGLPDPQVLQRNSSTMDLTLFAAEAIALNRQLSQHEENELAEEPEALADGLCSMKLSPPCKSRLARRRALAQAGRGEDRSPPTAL

In general, IC50 refers to the concentration needed to halve the response being measured. Compound `Cc1cc(Nc2ncnc3c2CN(C(=O)OC(C)(C)C)C3)c(=O)n2c1C(=O)NC21CCC1` [Example 162, tert-Butyl 4-[(8′-methyl-1′,5′-dioxo-1′,5′-dihydro-2′H-spiro[cyclobutane-1,3′-imidazo[1,5-a]pyridin]-6′-yl)amino]-5,7-dihydro-6H-pyrrolo[3,4-d]pyrimidine-6-carboxylate] displayed a half-maximal inhibitory concentration (IC50) of 21.7 nM. That is a double-digit nanomolar value.

Take `Cc1cc(Nc2ncnc3sc(C(=O)N4C[C@H]5C[C@@H]4CO5)cc23)c(=O)n2c1C(=O)NC21CCC1` [Example 158, 8′-Methyl-6′-({6-[(1R,4R)-2-oxa-5-azabicyclo[2.2.1]hept-5-ylcarbonyl]thieno[2,3-d]pyrimidin-4-yl}amino)-2′H-spiro[cyclobutane-1,3′-imidazo[1,5-a]pyridine]-1′,5′-dione]: the half-maximal inhibitory concentration (IC50) was 5 nM.

`Cc1cc(Nc2ncnc3scnc23)c(=O)n2c1C(=O)NC2(C)C` [Example 164, 3,3,8-Trimethyl-6-([1,3]thiazolo[5,4-d]pyrimidin-7-ylamino)-2,3-dihydroimidazo[1,5-a]pyridine-1,5-dione] displayed a half-maximal inhibitory concentration (IC50) of 383 nM.

The compound `Cc1cc(Nc2ncnc3c(F)c(F)ccc23)c(=O)n2c1C(=O)NC21CCCCC1` [Example 115, 6′-[(7,8-Difluoroquinazolin-4-yl)amino]-8′-methyl-2′H-spiro[cyclohexane-1,3′-imidazo[1,5-a]pyridine]-1′,5′-dione] showed a half-inhibitory concentration (IC50) of 208 nM.

In the case of `Cc1cc(Nc2ncnc3oc(C)c(C)c23)c(=O)n2c1C(=O)NC21CCCCC1` [Example 38, 6′-[(5,6-Dimethylfuro[2,3-d]pyrimidin-4-yl)amino]-8′-methyl-2′H-spiro[cyclohexane-1,3′-imidazo[1,5-a]pyridine]-1′,5′-dione], the IC50 is 79.9 nM. This IC50 lies about 2.6-fold lower than the previous one.

The compound `Cc1cc(Nc2ncnc3cccc(C)c23)c(=O)n2c1C(=O)N[C@]21CC[C@@](O)(C(F)(F)C(F)(F)F)CC1` [Example 191, (cis)-4-hydroxy-8′-methyl-6′-[(5-methylquinazolin-4-yl)amino]-4-(pentafluoroethyl)-2′H-spiro[cyclohexane-1,3′-imidazo[1,5-a]pyridine]-1′,5′-dione] displayed a half-maximal inhibitory concentration (IC50) of 67.8 nM.

Take `Cc1cc(Nc2ncnc3c2CN(S(=O)(=O)C(F)F)C3)c(=O)n2c1C(=O)NC21CCCCC1` [Example 71, 6′-({6-[(difluoromethyl)sulfonyl]-6,7-dihydro-5H-pyrrolo[3,4-d]pyrimidin-4-yl}amino)-8′-methyl-2′H-spiro[cyclohexane-1,3′-imidazo[1,5-a]pyridine]-1′,5′-dione]: the IC50 was determined as 59.2 nM.

Compound `Cc1cc(Nc2ncnc3sc(C(=O)N4CCC(N(C)C)CC4)cc23)c(=O)n2c1C(=O)NC21CCCCC1` [Example 14, 6′-[(6-{[4-(Dimethylamino)piperidin-1-yl]carbonyl}thieno[2,3-d]pyrimidin-4-yl)amino]-8′-methyl-2′H-spiro[cyclohexane-1,3′-imidazo[1,5-a]pyridine]-1′,5′-dione] displayed an IC50 of 4.1 nM. Against the preceding compound, the IC50 is about 14-fold lower.

`Cc1cc(Nc2ncnc3cccc(F)c23)c(=O)n2c1C(=O)NC21CCCCC1` [Example 41, 6′-[(5-Fluoroquinazolin-4-yl)amino]-8′-methyl-2′H-spiro[cyclohexane-1,3′-imidazo[1,5-a]pyridine]-1′,5′-dione] registered an IC50 of 14 nM.

Consider `Cc1cc(Nc2ncnc3cc(Cl)ccc23)c(=O)n2c1C(=O)NC21CCCCC1` [Example 108, 6′-[(7-Chloroquinazolin-4-yl)amino]-8′-methyl-2′H-spiro[cyclohexane-1,3′-imidazo[1,5-a]pyridine]-1′,5′-dione], for which the IC50 stood at 16.5 nM.

`Cc1cc(Nc2ncnc3sc(C(=O)O)cc23)c(=O)n2c1C(=O)NC21CCC(F)(F)CC1` [Example 80, 4-[(4,4-Difluoro-8′-methyl-1′,5′-dioxo-1′,5′-dihydro-2′H-spiro[cyclohexane-1,3′-imidazo[1,5-a]pyridin]-6′-yl)amino]thieno[2,3-d]pyrimidine-6-carboxylic acid] returned an IC50 of 126 nM. This IC50 lies about 7.6-fold higher than the previous one.

For the compound `Cc1cc(Nc2ncnc3sc(C(=O)N4C[C@H]5C[C@@H]4CO5)cc23)c(=O)n2c1C(=O)NC21CCC(F)(F)CC1` [Example 88, 4,4-Difluoro-8′-methyl-6′-({6-[(1R,4R)-2-oxa-5-azabicyclo[2.2.1]hept-5-ylcarbonyl]thieno[2,3-d]pyrimidin-4-yl}amino)-2′H-spiro[cyclohexane-1,3′-imidazo[1,5-a]pyridine]-1′,5′-dione], the concentration for half-maximal inhibition (IC50) amounted to 13.5 nM.

For `Cc1cc(Nc2ncnc3sc(C(=O)O)c(C)c23)c(=O)n2c1C(=O)NC21CCC1` [Example 169], inhibition was half-maximal at 15.7 nM (IC50).

For the compound `Cc1cc(Nc2ncnc3c(F)cccc23)c(=O)n2c1C(=O)NC21CCCCC1` [Example 111, 6′-[(8-Fluoroquinazolin-4-yl)amino]-8′-methyl-2′H-spiro[cyclohexane-1,3′-imidazo[1,5-a]pyridine]-1′,5′-dione], the half-maximal inhibitory concentration (IC50) was determined as 517 nM.

Turning to `Cc1cc(Nc2ncnc3sccc23)c(=O)n2c1C(=O)NC21CSC1` [Example 177, 8-methyl-6-[(thieno[2,3-d]pyrimidin-4-yl)amino]-2H-spiro[imidazo[1,5-a]pyridine-3,3′-thietane]-1,5-dione], the half-maximal inhibitory concentration (IC50) turned out to be 4.3 nM. Against the preceding compound, the IC50 is about 120-fold lower.

For the compound `Cc1cc(Nc2ncnc3sc(C(=O)N4CCC(N(C)C)CC4)cc23)c(=O)n2c1C(=O)NC21CCC1` [Example 157, 6′-[(6-{[4-(Dimethylamino)piperidin-1-yl]carbonyl}thieno[2,3-d]pyrimidin-4-yl)amino]-8′-methyl-2′H-spiro[cyclobutane-1,3′-imidazo[1,5-a]pyridine]-1′,5′-dione], the midpoint of inhibition, the IC50, lay at 7.9 nM.

As for `Cc1cc(Nc2ncnc3scnc23)c(=O)n2c1C(=O)NC21CCC(F)(F)CC1` [Example 101, 4,4-Difluoro-8′-methyl-6′-([1,3]thiazolo[5,4-d]pyrimidin-7-ylamino)-2′H-spiro[cyclohexane-1,3′-imidazo[1,5-a]pyridine]-1′,5′-dione], half-maximal inhibition (IC50) was put at 187 nM. This IC50 is about 24-fold higher than that of the compound before.

`Cc1cc(Nc2ncnc3[nH]ccc23)c(=O)n2c1C(=O)NC21CCS(=O)(=O)CC1` [Example 198, 8-methyl-6-(7H-pyrrolo[2,3-d]pyrimidin-4-ylamino)-2′,3′,5′,6′-tetrahydro-2H-spiro[imidazo[1,5-a]pyridine-3,4′-thiopyran]-1,5-dione 1′,1′-dioxide] registered a half-maximal inhibitory concentration (IC50) of 1.1 nM.

`Cc1cc(Nc2ncnc3cccc(Cl)c23)c(=O)n2c1C(=O)NC21CCCCC1` [Example 109, 6′-[(5-Chloroquinazolin-4-yl)amino]-8′-methyl-2′H-spiro[cyclohexane-1,3′-imidazo[1,5-a]pyridine]-1′,5′-dione] came in with an IC50 of 10.2 nM.

Consider `COCCN(C)C(=O)c1sc2ncnc(Nc3cc(C)c4n(c3=O)C3(CCCCC3)NC4=O)c2c1C` [Example 18, N-(2-methoxyethyl)-N,5-dimethyl-4-[(8′-methyl-1′,5′-dioxo-1′,5′-dihydro-2′H-spiro[cyclohexane-1,3′-imidazo[1,5-a]pyridin]-6′-yl)amino]thieno[2,3-d]pyrimidine-6-carboxamide], for which the midpoint of inhibition, the IC50, lay at 105 nM.

`Cc1cc(Nc2ncnc3c2CN(S(=O)(=O)c2ccccc2)C3)c(=O)n2c1C(=O)NC21CCCCC1` [Example 70, 8′-methyl-6′-{[6-(phenylsulfonyl)-6,7-dihydro-5H-pyrrolo[3,4-d]pyrimidin-4-yl]amino}-2′H-spiro[cyclohexane-1,3′-imidazo[1,5-a]pyridine]-1′,5′-dione] displayed an IC50 of 21.7 nM.

As for `Cc1cc(Nc2ncnc3sc(C(=O)O)cc23)c(=O)n2c1C(=O)NC21CCC1` [Example 150, 4-[(8′-Methyl-1′,5′-dioxo-1′,5′-dihydro-2′H-spiro[cyclobutane-1,3′-imidazo[1,5-a]pyridin]-6′-yl)amino]thieno[2,3-d]pyrimidine-6-carboxylic acid], the IC50 is 18.5 nM.

In turn, `Cc1cc(Nc2ncnc3sc(C(=O)N4CC(NC(=O)OC(C)(C)C)C4)cc23)c(=O)n2c1C(=O)NC21CCCCC1` [Example 27, tert-Butyl [1-({4-[(8′-methyl-1′,5′-dioxo-1′,5′-dihydro-2′H-spiro[cyclohexane-1,3′-imidazo[1,5-a]pyridin]-6′-yl)amino]thieno[2,3-d]pyrimidin-6-yl}carbonyl)azetidin-3-yl]carbamate] yielded an IC50 of 4 nM.
